Results reported in patent publication US9067911B2, “Piperidine derivatives” (Hoffmann-La Roche Inc., priority 2009, dated 2015).
Structures can show the parent of a compound that is named as a salt.

Target: T1, mGlyT-1b (Mus musculus, UniProt P28571)
T1 construct: host or cells: Flp-in-CHO
T1 sequence (P28571 1-651 isoform P28571-2): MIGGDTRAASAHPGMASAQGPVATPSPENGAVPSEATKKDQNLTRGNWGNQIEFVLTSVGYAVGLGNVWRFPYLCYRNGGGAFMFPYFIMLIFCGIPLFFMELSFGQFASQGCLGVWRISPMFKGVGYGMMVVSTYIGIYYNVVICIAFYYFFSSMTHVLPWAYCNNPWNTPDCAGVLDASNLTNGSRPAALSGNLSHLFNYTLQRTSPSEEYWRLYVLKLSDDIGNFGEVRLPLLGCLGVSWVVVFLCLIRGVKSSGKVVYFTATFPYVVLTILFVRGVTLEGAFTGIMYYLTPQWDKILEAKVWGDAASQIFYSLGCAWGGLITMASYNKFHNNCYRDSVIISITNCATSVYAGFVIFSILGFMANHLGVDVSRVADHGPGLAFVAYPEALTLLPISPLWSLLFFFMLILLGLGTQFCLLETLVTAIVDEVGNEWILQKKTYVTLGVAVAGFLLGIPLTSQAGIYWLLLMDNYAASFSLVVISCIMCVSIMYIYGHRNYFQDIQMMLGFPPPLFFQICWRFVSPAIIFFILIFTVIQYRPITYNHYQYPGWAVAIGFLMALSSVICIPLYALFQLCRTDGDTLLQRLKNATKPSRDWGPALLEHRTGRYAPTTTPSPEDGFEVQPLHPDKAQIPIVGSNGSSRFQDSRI
Assay: Glycine uptake inhibition assay (mGlyT-1b)
Format: cell-based
Conditions: [3H]-glycine uptake, Flp-in-CHO cells stably transfected with mGlyT1b cDNA, 20 min preincubation at 22° C.
Method: Nutrient mixture F-12 (Gibco Life-technologies), fetal bovine serum (FBS) 5%, (Gibco life technologies), Penicillin/Streptomycin 1% (Gibco life technologies), Hygromycin 0.6 mg/ml (Gibco life technologies), Glutamine 1 mM Gibco life technologies)
150 mM NaCl, 10 mM Hepes-Tris, pH 7.4, 1 mM CaCl2, 2.5 mM KCl, 2.5 mM MgSO4, 10 mM (+) D-glucose.
Flp-in™-CHO (Invitrogen Cat n° R758-07) cells stably transfected with mGlyT1b cDNA.
Glycine Uptake Inhibition Assay (mGlyT-1b)
On day 1 mammalian cells, (Flp-in™-CHO), transfected with mGlyT-1b cDNA, were plated at the density of 40,000 cells/well in complete F-12 medium, without hygromycin in 96-well culture plates. On day 2, the medium was aspirated and the cells were washed twice with uptake buffer (UB). The cells were then incubated for 20 min at 22° C. with either (i) no potential competitor, (ii) 10 mM non-radioactive glycine, (iii) a concentration of a potential inhibitor. A range of concentrations of the potential inhibitor was used to generate data for calculating the concentration of inhibitor resulting in 50% of the effect (e.g. IC50, the concentration of the competitor inhibiting glycine uptake of 50%). A solution was then immediately added containing [^3H]-glycine 60 nM (11-16 Ci/mmol) and 25 μM non-radioactive glycine. The plates were incubated with gentle shaking and the reaction was stopped by aspiration of the mixture and washing (three times) with ice-cold UB. The cells were lysed with scintillation liquid, shaken 3 hours and the radioactivity in the cells was counted using a scintillation counter.

| SMILES | IC50 [µM] |
| --- | --- |
| COc1cc(C(F)(F)F)cc(SC)c1C(=O)NC1(c2cccc(Cl)c2)CCCN(C)C1 (racemic) [Example 45, rac-N-[3-(3-Chloro-phenyl)-1-methyl-piperidin-3-yl]-2-methoxy-6-methylsulfanyl-4-trifluoromethyl-benzamide hydrochloride] | 0.0245 |
| CCc1cc(C(F)(F)F)ccc1C(=O)NC1(c2cccnc2)CCCN(C)C1 (racemic) [Example 74, rac-2-Ethyl-N-(1-methyl-1,4,5,6-tetrahydro-2H-[3,3′]bipyridinyl-3-yl)-4-trifluoromethyl-benzamide hydrochloride] | 0.123 |
| COc1cc(C(F)(F)F)cc(SC)c1C(=O)NC1(c2ccc(F)cc2F)CCCN(C)C1 (racemic) [Example 67, rac-N-[3-(2,4-Difluoro-phenyl)-1-methyl-piperidin-3-yl]-2-methoxy-6-methylsulfanyl-4-trifluoromethyl-benzamide] | 0.129 |
| COc1cc(C(F)(F)F)cc(SC)c1C(=O)NC1(c2ccccc2)CCCN(C(C)(C)C)C1 (racemic) [Example 104, rac-N-(1-tert-Butyl-3-phenyl-piperidin-3-yl)-2-methoxy-6-methylsulfanyl-4-trifluoromethyl-benzamide] | 0.173 |
| COc1cc(C(F)(F)F)cc(SC)c1C(=O)NC1(c2cc(F)cc(F)c2)CCCN(C)C1 (racemic) [Example 98, rac-N-[3-(3,5-Difluoro-phenyl)-1-methyl-piperidin-3-yl]-2-methoxy-6-methylsulfanyl-4-trifluoromethyl-benzamide] | 0.0622 |
| CN1CCCC(NC(=O)c2c(F)cc(C(F)(F)F)cc2C(F)(F)F)(c2ccccc2)C1 (racemic) [Example 5, rac-2-Fluoro-N-(1-methyl-3-phenyl-piperidin-3-yl)-4,6-bis-trifluoromethyl-benzamide] | 0.107 |
| CCc1cc(C(F)(F)F)ccc1C(=O)NC1(c2ccncc2)CCCN(C)C1 (racemic) [Example 72, rac-2-Ethyl-N-(1-methyl-1,4,5,6-tetrahydro-2H-[3,4′]bipyridinyl-3-yl)-4-trifluoromethyl-benzamide hydrochloride] | 0.0369 |
| CN1CCCC(NC(=O)c2ccc(C(F)(F)F)cc2C2CCC2)(c2ccccc2)C1 (racemic) [Example 66, rac-2-Cyclobutyl-N-(1-methyl-3-phenyl-piperidin-3-yl)-4-trifluoromethyl-benzamide hydrochloride] | 0.243 |
| COc1cc(C(F)(F)F)cc(SC)c1C(=O)N[C@]1(c2ccccc2)C[C@@H](C)CN(C)C1 (racemic) [Example 121, N-((3S,5R) or (3R,5S)-1,5-Dimethyl-3-phenyl-piperidin-3-yl)-2-methoxy-6-methylsulfanyl-4-trifluoromethyl-benzamide] | 0.0165 |
| COc1cc(C(F)(F)F)cc(C(F)(F)F)c1C(=O)NC1(c2ccc(F)cc2)CCCN(C)C1 (racemic) [Example 26, rac-N-[3-(4-Fluoro-phenyl)-1-methyl-piperidin-3-yl]-2-methoxy-4,6-bis-trifluoromethyl-benzamide] | 0.0593 |
| COc1cc(C(F)(F)F)cc(SC)c1C(=O)NC1(c2cccc(C)c2)CCCN(C)C1 (racemic) [Example 96, rac-2-Methoxy-6-methylsulfanyl-N-(1-methyl-3-m-tolyl-piperidin-3-yl)-4-trifluoromethyl-benzamide] | 0.0682 |
| COc1cc(C(F)(F)F)cc(SC)c1C(=O)NC1(c2ccccc2)CCC2(CC2)N(C)C1 (racemic) [Example 105, rac-2-Methoxy-N-(4-methyl-6-phenyl-4-aza-spiro[2.5]oct-6-yl)-6-methylsulfanyl-4-trifluoromethyl-benzamide] | 0.0293 |
| COc1cc(C(F)(F)F)cc(Br)c1C(=O)NC1(c2ccccc2)CCCN(C)C1 (racemic) [Example 7, rac-2-Bromo-6-methoxy-N-(1-methyl-3-phenyl-piperidin-3-yl)-4-trifluoromethyl-benzamide] | 0.0854 |
